“And” between values parts separate entries of the source, which are not always exact repeats. Equal entries are not always repeated. Where two headings read alike, the source gives them in different places.
Legend:
[1] = tested on: JAK2-STAT signaling pathways in HEL cells; assay: Western blot analysis of JAK2-STAT signaling in HEL cells; assay type: cell-based, human; details: 0.3-10 μM, 0.5 h
Method: HEL cells were added into six-well plates (2 × 10^6 cells/well) and then put into the incubator (37 °C, 5% CO2). After 24 h, the tested compounds were diluted in RPMI-1640 medium (final DMSO concentration = 0.1%) with different concentrations (0 μM, 0.3 μM, 1 μM, 3 μM, and 10 μM) was added separately into the wells, and incubated for another 0.5 h, then cells were collected and lysed. Proteins from each sample were isolated by SDS-PAGE and transferred to PVDF membrane. The membranes were blocked in 5% milk (TBST) for 1 h at room temperature, and subsequently incubated with the indicated primary antibody in blocking buffer overnight at 4 °C. Primary antibodies were used as follows: p-Y1007/8-JAK2 (#3771, CST, 1:1000), p-Y221-JAK2 (#11150, SAB, 1:500), p-Y705-STAT3 (#11045, SAB, 1:1000), p-Y694-STAT5 (#13386, SAB, 1:2000), STAT3 (10253-2-AP, Proteintech, 1:4000), STAT5 (12071-1-AP, Proteintech, 1:4000), JAK2 (E-AB-70193, Elabscience, 1:2000) and β-Actin (E-AB-20034, Elabscience, 1:10000). Then the membranes were washed with TBST (3 × 5 min), incubated with HRP-conjugated secondary antibody for 1 h at room temperature, washed again, and then exposed by chemiluminescence method using the enhanced ECL immunoblotting system (Tanon, Shanghai, China). All the experiments were repeated in triplicate. Blot bands were quantified by densitometry using Image J software v1.51.

SET-2 cells = assay: Cell proliferation assay (CCK-8), SET-2 cells; assay type: cell-based, human; details: for Inhibition (%): single wells, replicates 1 and 2
Method: (§1) The human erythroid leukemia (HEL 92.1.7) cells were purchased from the American Type Culture Collection (ATCC, TIB-180), and the human megakaryoblastic (SET2) cells were obtained from German Collection of Microorganisms and Cell Cultures (DSMZ, ACC 608). The anti-proliferative activities of compounds were evaluated using WST-8 cell counting kit-8 (Elabscience). HEL and SET-2 cells were seeded at 5000 cells/well in 70 μL RPMI-1640 medium (Hyclon) with 10% FBS (Gibco) to the 96-well plate and incubated overnight at 37 °C with 5% CO2. The compounds were serially diluted in RPMI-1640 medium, and cells were treated separately with 30 μL various concentrations of compounds for 72 h. The final DMSO concentration in the culture wells was 0.1%, which had no effect on the cell viability. Finally, 10 μL of CCK-8 solution was added into the wells. 4 h later, the absorbance values at 450 nm were recorded. IC50 values were determined using GraphPad Prism v8.3.0, and three parallel experiments were performed.

In vivo PK study in mice = details: mice
Method: The mice were separately administered to a group of three mice per time point for intravenous (5 mg/kg) or oral administration (5 mg/kg). […] Then the samples were separated by centrifugation and analyzed by LC-MS/MS (XEVO TQ-S) to determine the plasma drug concentrations. The PK parameters were calculated using the noncompartment model with Phoenix WinNonLin v8.0. The animal experimental procedures were approved by the Medicine Research Ethics Committee of Hangzhou Leading Pharmatech Co., Ltd.

HEL cells = assay: Cell proliferation assay (CCK-8), HEL cells; assay type: cell-based, human; details: for Inhibition (%): single wells, replicates 1 and 2
Method: as §1
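For AUCinf in this document: mice dosed intravenously or orally, three animals per time point, plasma drug levels quantified by LC-MS/MS, PK parameters derived by noncompartmental analysis in Phoenix WinNonLin.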
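For Cmax in this document: mice dosed intravenously or orally, three animals per time point, plasma drug levels quantified by LC-MS/MS, PK parameters derived by noncompartmental analysis in Phoenix WinNonLin.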
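For T1/2 in this document: mice dosed intravenously or orally, three animals per time point, plasma drug levels quantified by LC-MS/MS, PK parameters derived by noncompartmental analysis in Phoenix WinNonLin.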
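For Tmax in this document: mice dosed intravenously or orally, three animals per time point, plasma drug levels quantified by LC-MS/MS, PK parameters derived by noncompartmental analysis in Phoenix WinNonLin.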

Cc1cnc2nc1Nc1cccc(c1)COCc1cc(ccc1OCCN1CCCC1)N2 [Compound 1]
activation of downstream signaling molecule STAT3 and STAT5 [1]: significantly inhibited | phosphorylation of JAK2 at Y1007/8 site [1]: increased | phosphorylation of JAK2 at Y221 site ([1]; dose-dependent): efficiently blocked | Inhibition (%) (SET-2 cells; SET-2 cell lines, 0.0977 μM): 5.3742% and 3.7022% and -1.2341% and 4.261% and 8.580% and 6.307% | Inhibition (%) (SET-2 cells; SET-2 cell lines, 0.1953 μM): 7.5239% and 7.2850% and 0.8360% and 9.148% and 16.307% and 12.784% | Inhibition (%) (SET-2 cells; SET-2 cell lines, 0.3906 μM): 10.3105% and 11.0271% and 3.0653% and 12.898% and 19.375% and 18.352% | Inhibition (%) (SET-2 cells; SET-2 cell lines, 0.7813 μM): 17.3965% and 16.7596% and 8.4793% and 17.557% and 26.420% and 24.261% | Inhibition (%) (SET-2 cells; SET-2 cell lines, 1.5625 μM): 26.9506% and 28.1449% and 22.3328% and 35.966% and 41.989% and 43.580% | Inhibition (%) (SET-2 cells; SET-2 cell lines, 3.1250 μM, 3.125 µM): 60.6290% and 56.0111% and 56.4092% and 69.034% and 74.716% and 74.943% | Inhibition (%) (SET-2 cells; SET-2 cell lines, 6.2500 μM, 6.25 µM): 97.5717% and 97.1736% and 97.3328% and 98.920% and 99.830% and 100.398% | Inhibition (%) (SET-2 cells; SET-2 cell lines, 12.5000 μM, 12.5 µM): 96.8551% and 96.6959% and 97.3328% and 99.716% and 100.170% and 100.398% | IC50 (SET-2 cells; SET-2 cell lines, mean of 2 replicates, read-out: IC50/μM mean, cellular antiproliferative activity): 1.64 µM | IC50 (SET-2 cells; SET-2 cell lines, mean ± sd of 2 replicates, read-out: IC50/μM mean ± sd, cellular antiproliferative activity): 1.64 ± 0.03 µM | IC50 (SET-2 cells; SET-2 cell lines, single-replicate fits, read-out: IC50/μM (individual replicates), cellular antiproliferative activity): 1.62 µM and 1.66 µM | IC50 (SET-2 cells; SET-2 cells, 72 h, mean ± SD, read-out: Cellular Antiproliferative Activity (IC50) SET-2): 1.64 ± 0.03 µM | AUCinf (In vivo PK study in mice; iv (5 mg/kg)): 752.47 ng·h/mL | Cmax (In vivo PK study in mice; iv (5 mg/kg)): 76.57 ng/mL | T1/2 (In vivo PK study in mice; iv (5 mg/kg)): 5.35 h | Tmax (In vivo PK study in mice; iv (5 mg/kg)): 4.00 h | AUCinf (In vivo PK study in mice; po (5 mg/kg)): 106.00 ng·h/mL | Cmax (In vivo PK study in mice; po (5 mg/kg)): 10.35 ng/mL | T1/2 (In vivo PK study in mice; po (5 mg/kg)): 4.47 h | Tmax (In vivo PK study in mice; po (5 mg/kg)): 6.00 h | F (bioavailability) (In vivo PK study in mice; po (5 mg/kg) vs iv (5 mg/kg)): 14.1% | Inhibition (%) (HEL cells; HEL cell lines, 0.0977 μM): 2.2777% and 0.5143% and -1.6899% and 3.096% and 4.826% and 5.277% | Inhibition (%) (HEL cells; HEL cell lines, 0.1953 μM): 5.8046% and 4.8494% and 8.1558% and 6.255% and 8.812% and 5.578% | Inhibition (%) (HEL cells; HEL cell lines, 0.3906 μM): 18.9566% and 20.0588% and 8.5966% and 7.458% and 10.165% and 8.511% | Inhibition (%) (HEL cells; HEL cell lines, 0.7813 μM): 26.0838% and 31.3005% and 30.4188% and 11.594% and 18.814% and 14.151% | Inhibition (%) (HEL cells; HEL cell lines, 1.5625 μM): 34.0926% and 44.3057% and 45.4813% and 25.056% and 31.900% and 30.547% | Inhibition (%) (HEL cells; HEL cell lines, 3.1250 μM, 3.125 µM): 46.4364% and 51.6532% and 53.8575% and 56.869% and 60.404% and 60.629% | Inhibition (%) (HEL cells; HEL cell lines, 6.2500 μM, 6.25 µM): 64.2910% and 65.8339% and 68.7730% and 85.974% and 88.155% and 87.628% | Inhibition (%) (HEL cells; HEL cell lines, 12.5000 μM, 12.5 µM): 80.4555% and 78.6187% and 81.4842% and 94.397% and 94.999% and 94.924% | IC50 (HEL cells; HEL cell lines, mean of 2 replicates, read-out: IC50/μM mean, cellular antiproliferative activity): 2.41 µM | IC50 (HEL cells; HEL cell lines, mean ± sd of 2 replicates, read-out: IC50/μM mean ± sd, cellular antiproliferative activity): 2.41 ± 0.2 µM | IC50 (HEL cells; HEL cell lines, single-replicate fits, read-out: IC50/μM (individual replicates), cellular antiproliferative activity): 2.27 µM and 2.55 µM | IC50 (HEL cells; HEL cells, 72 h, mean ± SD, read-out: Cellular Antiproliferative Activity (IC50) HEL): 2.41 ± 0.2 µM

From publication PMC10382584, “Macrocyclization of linear molecules by deep learning to facilitate macrocyclic drug candidates discovery” (Nature Communications, 2023)
